Measurements as given in patent publication US20240336594A1, “SIX-MEMBERED ARYL OR HETEROARYL AMIDES, AND COMPOSITION AND USE THEREOF” (BETTA PHARMACEUTICALS CO., LTD, priority 2021, published 2024).

target: T1, MALT1 (Homo sapiens, UniProt Q9UDY8); test: MALT1 protease inhibition assay (AMC-labeled peptide, fluorescence 360/460); type: biochemical; settings: substrate Ac-LRSR-AMC, 15 min preincubation, 90 min at 25° C.
T1 sequence (Q9UDY8 1-824): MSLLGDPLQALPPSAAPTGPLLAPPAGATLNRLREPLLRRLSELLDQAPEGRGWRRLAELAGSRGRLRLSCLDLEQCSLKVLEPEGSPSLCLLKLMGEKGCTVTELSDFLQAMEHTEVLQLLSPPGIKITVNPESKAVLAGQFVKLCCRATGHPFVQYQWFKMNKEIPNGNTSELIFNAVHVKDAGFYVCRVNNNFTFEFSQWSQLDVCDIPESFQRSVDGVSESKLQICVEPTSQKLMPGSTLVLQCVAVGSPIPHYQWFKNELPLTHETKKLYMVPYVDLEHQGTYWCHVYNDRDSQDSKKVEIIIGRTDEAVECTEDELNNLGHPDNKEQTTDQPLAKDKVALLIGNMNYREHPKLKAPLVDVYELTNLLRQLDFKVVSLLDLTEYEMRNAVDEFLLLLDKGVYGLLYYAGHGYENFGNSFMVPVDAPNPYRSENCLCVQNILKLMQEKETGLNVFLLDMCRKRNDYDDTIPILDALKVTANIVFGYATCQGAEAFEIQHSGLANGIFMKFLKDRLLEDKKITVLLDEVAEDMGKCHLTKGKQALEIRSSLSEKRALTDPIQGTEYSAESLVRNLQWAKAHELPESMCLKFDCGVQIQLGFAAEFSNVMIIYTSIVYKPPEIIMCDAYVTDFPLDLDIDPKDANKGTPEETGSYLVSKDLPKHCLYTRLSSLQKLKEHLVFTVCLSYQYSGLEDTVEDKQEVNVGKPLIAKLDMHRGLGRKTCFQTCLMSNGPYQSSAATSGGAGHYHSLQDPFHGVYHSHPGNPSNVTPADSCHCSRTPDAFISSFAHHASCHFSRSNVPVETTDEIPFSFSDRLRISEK
Method: Test compounds of the present invention (in 100% DMSO) were spotted into a 384-well dilution plate and serially diluted to the required concentrations with DMSO. Then, 0.2 μL of the test compounds were transferred into a new 384-well reaction plate by Echo following centrifugation. The MALT enzyme and its substrate, AMC-labeled peptide, were prepared in 1× protease buffer to yield 2× enzyme solution and 2× peptide solution. Subsequently, 10 μL of 2× enzyme solution was added into the 384-well reaction plate, incubating with the test compounds for 15 minutes at 25° C. After that, 10 μL of 2× peptide solution was added into the plate, continuing to incubate for 90 minutes at 25° C. The plate was then placed on an Envision multifunctional microplate reader to collect raw data, which would be converted into inhibition rate:
Inhibition rate %=(max−sample)/(max−min)*100%. • “max” values were measured using the reaction with enzyme but no compound treated, while “min” values were generated from control wells containing assay buffer without enzyme.
Curve fitting was done with Graphpad Prism software to determine the IC50 values. The specific experimental operations are as follows:
58.82 g Na Citrate·2H2O powder was added into 140 mL ddH2O and mixed in a 37° C. water bath. Once there were no visible particles, the remaining solutions were added successively with continuous stirring for 10 minutes. The final volume was adjusted to 200 mL. The buffer was stored at room temperature. DTT was added before use.
• 1) All test compounds were diluted from 10 mM stock solution into 1 mM in a 384 well dilution plate (labcyte, PP-0200); • 2) Ten various concentrations of the diluted compound solution above were obtained by serial dilution at an equal ratio of 1:3; • 3) 0.2 μL DMSO was transferred to two empty wells of the 384 reaction plate as blank controls without compound and enzyme respectively; • 4) 0.2 μL of the test compound at different concentrations was also transferred into the 384 reaction plate by Echo, with two duplicate wells for each concentration, then the plate was centrifuged at 1000 rpm for 1 min.
• 1) The MALT1 protease and AMC-labeled peptide was prepared in 1× protease buffer to obtain 2× enzyme solution and 2× peptide solution. 10 μL of 2× enzyme solution was added into the 384-well reaction plate. The plate was centrifuged at 1000 rpm for 1 min and incubated for 15 min at 25° C. • 2) 10 μL of 2× peptide solution was then transferred to the 384 reaction plate, and the plate was centrifuged at 1000 rpm for 1 min and incubate for 90 min at 25° C.

Compound | IC50
C#Cc1cnccc1-c1cc(Cl)c(C(=O)Nc2cnc(C(=O)NCCc3ccccc3)c(Cl)c2)cc1F [Example A432, 3-chloro-5-(2-chloro-4-(3-ethynylpyridin-4-yl)-5-fluorobenzamido)-N-phenethylpicolinamide] | 10 to 100 nM
CC(C#N)NC(=O)c1ncc(NC(=O)c2cc(F)c(-c3ccc(F)cc3N)cc2Cl)cc1Cl (stereo not shown) [Example A450, 5-(2′-amino-5-chloro-2,4′-difluoro-[1,1′-biphenyl]-4-carboxamido)-3-chloro-N-(1-cyanoethyl)picolinamide] | 10 to 100 nM
O=C(Nc1cnc(-n2nccn2)c(Cl)c1)c1cc(F)c(-c2ccncc2C2CC2)cc1Cl [Example A445, 2-chloro-N-(5-chloro-6-(2H-1,2,3-triazol-2-yl)pyridin-3-yl)-4-(3-cyclopropylpyridin-4-yl)-5-fluorobenzamide] | 10 to 100 nM
5-(2′-amino-5-chloro-2,4′- difluoro-[1,1′-biphenyl]-4- carboxamido)-3-chloro-N- (2,2-difluoro-2λ3- ethyl)picolinamide [Example A457] | 10 to 100 nM
C#Cc1cccc(Cl)c1-c1cc(Cl)c(C(=O)Nc2cnc(-n3nccn3)c(C(F)(F)F)c2)cc1F [Example A413] | ≤ 10 nM
C#Cc1cc(C(=O)Nc2cnc(-n3nccn3)c(Cl)c2)c(C)cc1-c1ccc(F)cc1N [Example A409] | ≤ 10 nM
C#Cc1cc(C(=O)Nc2cnc(-n3nccn3)c(Cl)c2)c(C)cc1-c1ccc(F)nc1N [Example A416, 4-(2-amino-6-fluoropyridin-3-yl)-N-(5-chloro-6-(2H-1,2,3-triazol-2-yl)pyridin-3-yl)-5-ethynyl-2-methylbenzamide] | 100 to 500 nM
C=Cc1cnccc1-c1cc(Cl)c(C(=O)Nc2cnc(-n3nccn3)c(C(F)(F)F)c2)cc1F [Example A346, N-(6-(2H-1,2,3-triazol-2-yl)-5-(trifluoromethyl)pyridin-3-yl)-2-chloro-5-fluoro-4-(3-vinylpyridin-4-y1)benzamide] | ≤ 10 nM
Cc1cc(F)cc(N)c1-c1cc(Cl)c(C(=O)Nc2cnc(C(=O)NCC#N)c(Cl)c2)cc1F [Example A442, 5-(2′-amino-5-chloro-2,4′-difluoro-6′-methyl-[1,1′-biphenyl]-4-carboxamido)-3-chloro-N-(cyanomethyl)picolinamide] | 10 to 100 nM
N#CCNC(=O)c1ncc(NC(=O)c2cc(F)c(-c3ccc(F)cc3N)cc2Cl)cc1Cl [Example A441, 5-(2′-amino-5-chloro-2,4′-difluoro-[1,1′-biphenyl]-4-carboxamido)-3-chloro-N-(cyanomethyl)picolinamide] | 10 to 100 nM
Nc1cc(F)ccc1-c1cc(Cl)c(C(=O)Nc2cnc(C(=O)NCC3CC(F)(F)C3)c(Cl)c2)cc1F [Example A451, 5-(2′-amino-5-chloro-2,4′-difluoro-[1,1′-biphenyl]-4-carboxamido)-3-chloro-N-((3,3-difluorocyclobutyl)methyl) picolinamide] | 10 to 100 nM
C#Cc1cnccc1-c1cc(Cl)c(C(=O)Nc2cnc(C(=O)NCc3ccoc3)c(Cl)c2)cc1F [Example A433, 3 3-chloro-5-(2-chloro-4-(3-ethynylpyridin-4-yl)-5-fluorobenzamido)-N-(furan-3-ylmethyl)picolinamide] | 10 to 100 nM
CCCCNC(=O)c1ncc(NC(=O)c2cc(F)c(-c3ccc(F)cc3N)cc2Cl)cc1Cl [Example A438, 5-(2′-amino-5-chloro-2,4′-difluoro-[1,1′-biphenyl]-4-carboxamido)-N-butyl-3-chloropicolinamide] | 10 to 100 nM
O=C(Nc1cnc(-n2nccn2)c(C(F)(F)F)c1)c1cc(F)c(-c2c(Br)cncc2[N+](=O)[O-])cc1Cl [Example A440, N-(6-(2H-1,2,3-triazol-2-yl)-5-(trifluoromethyl)pyridin-3-yl)-4-(3-bromo-5-nitropyridin-4-yl)-2-chloro-5-fluorobenzamide] | 10 to 100 nM

Continued, values first:

IC50 | Compound
10 to 100 nM | Cn1ccc(CNC(=O)c2ncc(NC(=O)c3cc(F)c(-c4ccc(F)cc4N)cc3Cl)cc2Cl)n1 [Example A455, 5-(2′-amino-5-chloro-2,4′-difluoro-[1,1′-biphenyl]-4-carboxamido)-3-chloro-N-((1-methyl-1H-pyrazol-3-yl)methyl)picolinamide]
10 to 100 nM | CCSCCNC(=O)c1ncc(NC(=O)c2cc(F)c(-c3ccc(F)cc3N)cc2Cl)cc1Cl [Example A464, 5-(2′-amino-5-chloro-2,4′-difluoro-[1,1′-biphenyl]-4-carboxamido)-3-chloro-N-(2-(ethylthio)ethyl) picolinamide]
10 to 100 nM | NC(=O)CNC(=O)c1ncc(NC(=O)c2cc(F)c(-c3ccc(F)cc3N)cc2Cl)cc1Cl [Example A465, N-(2-amino-2-oxoethyl)-5-(2′-amino-5-chloro-2,4′-difluoro-[1,1′-biphenyl]-4-carboxamido)-3-chloropicolinamide]
≤ 10 nM | C#Cc1cncc(N)c1-c1cc(Cl)c(C(=O)Nc2cnc(C(=O)NCC(C)(C)C)c(Cl)c2)cc1F [Example A478, 5-(4-(3-amino-5-ethynylpyridin-4-yl)-2-chloro-5-fluorobenzamido)-3-chloro-N-neopentylpicolinamide]
10 to 100 nM | Cc1nnc(CNC(=O)c2ncc(NC(=O)c3cc(F)c(-c4ccc(F)cc4N)cc3Cl)cc2Cl)o1 [Example A462, 5-(2′-amino-5-chloro-2,4′-difluoro-[1,1′-biphenyl]-4-carboxamido)-3-chloro-N-((5-methyl-1,3,4-oxadiazol-2-yl)methyl)picolinamide]
10 to 100 nM | N#CCNC(=O)c1ncc(NC(=O)c2cc(F)c(-c3ccc(F)nc3N)cc2Cl)cc1Cl [Example A456, 5-(4-(2-amino-6-fluoropyridin-3-yl)-2-chloro-5-fluorobenzamido)-3-chloro-N-(cyanomethyl)picolinamide]
100 to 500 nM | CN(C)CCNC(=O)c1ncc(NC(=O)c2cc(F)c(-c3ccc(F)cc3N)cc2Cl)cc1Cl [Example A453, 5-(2′-amino-5-chloro-2,4′-difluoro-[1,1′-biphenyl]-4-carboxamido)-3-chloro-N-(2-(dimethylamino)ethyl) picolinamide]
10 to 100 nM | N#CC1(CNC(=O)c2ncc(NC(=O)c3cc(F)c(-c4ccc(F)cc4N)cc3Cl)cc2Cl)CC1 [Example A466, 5-(2′-amino-5-chloro-2,4′-difluoro-[1,1′-biphenyl]-4-carboxamido)-3-chloro-N-((1-cyanocyclopropyl)methyl)picolinamide]
≤ 10 nM | Nc1cncc(C2CC2)c1-c1cc(Cl)c(C(=O)Nc2cnc(-n3nccn3)c(C(F)(F)F)c2)cc1F [Example A475, N-(6-(2H-1,2,3-triazol-2-yl)-5-(trifluoromethyl)pyridin-3-yl)-4-(3-amino-5-cyclopropylpyridin-4-yl)-2-chloro-5-fluorobenzamide]
≤ 10 nM | C#Cc1cnc(F)c(N)c1-c1cc(Cl)c(C(=O)Nc2cnc(-n3nccn3)c(C(F)(F)F)c2)cc1F [Example A552, N-(6-(2H-1,2,3-triazol-2-yl)-5-(trifluoromethyl)pyridin-3-yl)-4-(3-amino-5-ethynyl-2-fluoropyridin-4-yl)-2-chloro-5-fluorobenzamide]
100 to 500 nM | Nc1cc(F)ccc1-c1cc(Cl)c(C(=O)Nc2cnc(C(=O)NCC3CCC3)c(Cl)c2)cc1F [Example A454, 5-(2′-amino-5-chloro-2,4′-difluoro-[1,1′-biphenyl]-4-carboxamido)-3-chloro-N-(cyclobutylmethyl) picolinamide]
